Assay results: US9493482B2, “Compounds and methods for preventing or treating sensory hair cell death” (University of Washington, priority 2015, dated 2016)
Counter-ions that a name gives are not always drawn.

Assays:
[1] = Auditory Brainstem Response (ABR) Assay; assay type: in vivo, rats; settings: Day 24 vs Day 0, FIG. 2
Protocol: Chronic treatment of rats with aminoglycosides (AGs) such as kanamycin or amikacin results in an elevation of ABR thresholds, typically most pronounced at higher frequencies. For rats, hearing is tested at a range of frequencies to determine the intensity of sound (measured in decibels) necessary to evoke a response. As hearing loss becomes more severe, a higher intensity is needed to evoke a response. Each rat serves as its own control; hearing thresholds are determined at each frequency prior to any treatment and then at 2 weeks after a 10-day course of AG treatment (or control drug exposures).
The ABR assay measures short latency field potentials recorded from the scalp of animals that were sedated or noninvasively immobilized. […] For each animal, hearing thresholds, wave 1 latencies and input-output functions for stimulus frequencies at 2, 4, 8, 16 and 32 kHz were measured prior to any treatment to determine the initial sensitivity and dynamic range of hearing, and then repeated at the end of drug treatment and at the end of the experiment (2-weeks after dosing). […]
ABR records were evaluated by a “blinded”, trained experimenter. Hearing loss (Threshold Shift) was determined by subtracting the threshold during pre-treatment (Day 0) from the final ABR threshold (Day 24; two weeks following treatment). […]

[2] = Effect of Amikacin and Compound 9 on Kidney Function: creatinine clearance; assay type: in vivo, Fischer 344 rats; settings: FIG. 3
Protocol: (§1) The study consisted of three groups of Fischer 344 rats aged 6 weeks and weighing approximately 200 g at the start of the study. Group 1 consisted of six rats, randomly selected to receive amikacin only, Group 2 consisted of six rats chosen randomly to receive amikacin and compound 9, and Group 3 consisted of three rats, 2 rats given compound 9 and 1 rat given only 0.5% Methylcellulose, the diluent for compound 9. All animals receiving amikacin were given 320 mg/kg subcutaneously (SQ) from a freshly prepared solution of amikacin of 40 mg/mL. The compound 9 formulation was prepared by weighing 13.08 mg of compound 9 dissolved in 12 mL of 0.5% MC in saline with vortexing, sonification and homogenization to obtain a solution with concentration at 12 mg/12 mL=1 mg/mL, dose volume is 5 mL/kg (5 mg/kg). The compound 9 solution was given by oral gavage at a dose of 5 mg/kg.
(§2) One day prior to the onset of dosing, blood was drawn from all rats for serum analysis and all rats were put into metabolic cages for 24 hour urine collection and analysis. All rats were returned to normal cages and allowed to eat and drink ad lib. All rats received their assigned treatments for 10 days and then were returned to metabolic cages for the 10th day. […] The pathologist read the slides, blinded to the group from which they were assigned. […]

[3] = test system: kidney; assay: Kidney histopathology after amikacin with or without compound 9; assay type: in vivo, Fischer 344 rats; settings: amikacin only, section type (longitudinal or cross) not stated, FIG. 4
Protocol: as §1, §2

| Compound | Hearing loss (Threshold Shift), high frequency ([1]; AMI/320 (amikacin SC 320 mg/kg/day) + Compound 9 PO 5 mg/kg/day for 10 days) | creatinine clearance (CrCl) post treatment vs baseline ([2]; Group 2: amikacin 320 mg/kg SQ + compound 9 5 mg/kg oral gavage for 10 days) | Hearing loss (Threshold Shift) ([1]; amikacin alone SC 320 mg/kg/day for 10 days) | creatinine clearance (CrCl) post treatment vs baseline ([2]; Group 1: amikacin only 320 mg/kg SQ for 10 days) | kidney histopathology damage score (0-4) ([3]; first stated change (3.9 to 3.6)) | kidney histopathology damage score (0-4) ([3]; second stated change (3.9 to 3.1)) |
| --- | --- | --- | --- | --- | --- | --- |
| CN1[C@H]2CC[C@@H]1c1c(sc(NC(=O)Nc3ccc(Cl)cc3)c1C(N)=O)C2 [Compound 9, (4R,7S)-2-(3-(4-chlorophenyl)ureido)-9-methyl-5,6,7,8-tetrahydro-4H-4,7-epiminocyclohepta[b]thiophene-3-carboxamide hydrochloride] | robust protection | significantly different from baseline |  |  |  |  |
| NCC[C@H](O)C(=O)N[C@@H]1C[C@H](N)[C@@H](O[C@H]2O[C@H](CN)[C@@H](O)[C@H](O)[C@H]2O)[C@H](O)[C@H]1O[C@H]1O[C@H](CO)[C@@H](O)[C@H](N)[C@H]1O [amikacin] |  |  | hearing loss | significantly different from baseline | 3.9 | 3.9 |
